Measured values taken from patent publication US11912650B2, “Bakuchiol derivatives, pharmaceutically acceptable salts thereof, and preparation method and use of the same” (priority 2020, dated 2024).
Values after ≈ are worked out from the molar mass of the structure shown. Where a SMILES comes first, the peptide text is derived from it. The star is where a group is joined. X1 = C=C[C@](C)(/C=C/c1ccc(OCC(=O)*)cc1)CCC=C(C)C

What was measured:
MRSA NCTC10442 = experiment: Antibacterial activity assay (broth dilution MIC); assay type: cell-based, methicillin-resistant Staphylococcus aureus; conditions: Staphylococcus aureus, 37° C., 24 h, compounds 38, 44-45, 58-61, 63-64 with 0.05% Tween 80
Method: (§1) Antibacterial activity assay. The antibacterial activities of all the compounds were determined according to a broth dilution method specified in Clinical and Laboratory Standards Institute (CLSI) guidelines. Bacterial cells were inoculated on a Mueller-Hinton agar (MHA) plate for overnight culture, and the concentration of the bacterial cells was adjusted to about 1×10^6 colony-forming units (CFU)/mL with phosphate buffered saline (PBS). First, a 1000 μg/mL stock solution (a final concentration of dimethyl sulfoxide (DMSO) was ≤2%) was prepared by dissolving a sample in DMSO/H2O. Then, the stock solution was diluted with Mueller-Hinton Broth (MHB) to an initial concentration of 100 μg/mL, and the sample solution (100 μL) was subjected to two-fold gradient dilution with MHB in a 96-well plate, to obtain 100 μg/mL to 0.78 μg/mL serial dilutions. Then, a bacterial suspension (100 μL) was added to each well of the 96-well plate and mixed with the test sample solution (100 μL). Among them, test systems for compounds 38, 44-45, 58-61 and 63-64 contained 0.05% of Tween 80. Finally, the 96-well plate was incubated at 37° C. for 24 hours. Absorbances at 600 nm at 0 and 24 h were measured. An minimum inhibitory concentration (MIC) value was defined as the lowest concentration where no visible bacterial growth occurred. All experiments were carried out in at least two duplicates, and biological repeatability could be achieved.

MRSA N315 = experiment: Antibacterial activity assay (broth dilution MIC); assay type: cell-based, methicillin-resistant Staphylococcus aureus; conditions: Staphylococcus aureus, 37° C., 24 h, compounds 38, 44-45, 58-61, 63-64 with 0.05% Tween 80
Method: as §1

rabbit red blood cells = experiment: Hemolytic activity assay; assay type: cell-based
Method: Hemolytic activity assay. Rabbit red blood cells were centrifuged at 2500 rpm for 3 minutes and then washed twice with PBS. Subsequently, a 8% (v/v) cell suspension was prepared by resuspending the rabbit red blood cells with PBS. A sample was first dissolved in DMSO or PBS (a final concentration of DMSO was ≤0.5%), and then diluted with PBS to prepare two-fold gradient dilutions (400 μg/mL to 3.125 μg/mL). The rabbit red blood cell suspension ([…]) was mixed with the two-fold gradient dilutions ([…]) of the sample. Then, the mixture was added to a sterile 96-well plate, incubated at 37° C. for 1 hour, and then centrifuged at 2500 rpm for 5 minutes. Among them, test systems for compounds 38, 44-45, 58-61 and 63-64 contained 0.05% of Tween 80. The supernatant (100 μL) was transferred to a new 96-well plate. Absorbance at 576 nm was measured using a Biotek multifunctional microplate reader. The positive control group was treated with a 2% Triton X-100 solution, and the negative control group was treated with PBS or 0.5% DMSO. The hemolytic activity was calculated by the following equation: % hemolytic activity=[(Abssample−Absnegative control)/(Abspositive control−Absnegative control)]×100. All experiments were carried out in at least two duplicates, and biological repeatability could be achieved.

Gram-negative bacteria = experiment: Antibacterial activity against Gram-negative bacteria (MIC summary); assay type: cell-based; conditions: 24 h; summary of tables 1 and 2
Method: as §1

Gram-positive bacteria = experiment: Antibacterial activity against Gram-positive bacteria (MIC summary); assay type: cell-based; conditions: 24 h; summary of tables 1 and 2; read-out: minimum inhibitory concentration (MIC) against Gram-positive bacteria
Method: as §1

S. aureus ATCC29213 [1] = experiment: Antibacterial activity assay (broth dilution MIC); assay type: cell-based; conditions: Staphylococcus aureus, 37° C., 24 h, compounds 38, 44-45, 58-61, 63-64 with 0.05% Tween 80
Method: as §1

E. coli ATCC25922 = experiment: Antibacterial activity assay (broth dilution MIC); assay type: cell-based; conditions: Escherichia coli, 37° C., 24 h, compounds 38, 44-45, 58-61, 63-64 with 0.05% Tween 80
Method: as §1

[2] = Pharmacokinetic characteristics in mice; assay type: in vivo
S. aureus ATCC29213 [3] = experiment: Mouse model of bacterial peritonitis (abdominal infection); assay type: in vivo; conditions: 58 5 mg/kg intravenously every 4 hours; vancomycin 20 mg/kg IP; 5 mice per group
Method: CD-1 mice (6-8 weeks, with an average weight of 25 g) were used as an abdominal infection model. First, the mice were injected with S. aureus ATCC29213 (OD600≈1.0) intraperitoneally, and the mice were randomized into three groups (5 mice per group). After 1 hour of infection, one group was dosed with 58 (5 mg/kg) intravenously for treatment, once every 4 hours; and meanwhile, one group dosed with vancomycin (20 mg/kg, IP) was used as a positive control group, and the other group dosed with a 0.9% sodium chloride injection was used as a blank control group. After two days of treatment, the survival rate of the mice was investigated.

[4] = system: mouse fibroblasts NCTC clone 929; experiment: Toxicity to mammalian cells (CCK-8); assay type: cell-based; conditions: 100 μg/mL, 24 h
Method: Assay of toxicity to mammalian cells. The cytotoxicities of a compound to be tested to mouse fibroblasts NCTC clone 929, mouse corneal cells CM120 and human hepatocellular carcinoma cells Hep-G2 were evaluated by a CCK-8 method. Cells were inoculated to a 96-well plate according to the cell amount described in a CCK-8 kit (Beyotime, PRC) specification, and cultured at 37° C. with 5% CO2 for 24 h. Then, a specific concentration of the sample to be tested was added to each well. Inoculation was further performed at 37° C. in an incubator for 24 h. Finally, a CCK-8 solution having a final concentration of 10% was added to each well. Incubation was further performed in the incubator for 1.0 h before absorbance at 450 nm (OD450) of the solution was measured by a microplate reader. According to formula (2), the cytotoxicity of the sample to be tested could be obtained:
[formula] • Asample: absorbance of a well with cells, a CCK8 solution and a sample solution to be tested; • Ablank: absorbance of a well with a culture medium and a CCK8 solution but without cells; and • Ano sample: absorbance of a well with cells and a CCK8 solution but without a sample solution to be tested.

S. aureus ATCC29213 [5] = experiment: Evaluation of development tendency of drug resistance; assay type: cell-based; conditions: S. aureus ATCC29213, passage at 0.5×MIC
Method: Evaluation of development tendency of drug resistance. Initial MIC values of compound 60, norfloxacin and gatifloxacin against S. aureus ATCC29213 were obtained by the above MIC determination method. Bacterial cells in a 96-well plate with a concentration of 0.5×MIC were taken out to prepare a bacterial suspension (about 1×10^6 CFU/mL) for the next MIC value determination. After incubating the sample at 37° C. for 24 hours, the change in the MIC value of each compound was measured. This experiment was carried out consecutively for 15 days.

S. aureus ATCC29213 [6] = experiment: Mouse model of bacterial keratitis (cornea infection); assay type: in vivo; conditions: topical four times a day for three days; 0.5% compound 60, 5% vancomycin; P<0.01
Method: Evaluation of in vivo efficacy. The experiment for evaluating in vivo antibacterial efficacy of animals had been approved by the Laboratory Animal Center of South China Agricultural University and was carried out according to the policy of the Ministry of Health of the People's Republic of China. Female C57BL6 mice (6-8 weeks, with an average weight of 20 g) were used as a bacterial keratitis model. In order to establish an immunosuppressive mouse model, cyclophosphamide (100 mg/kg) was injected intraperitoneally to mice three times 5 days before infection. Bacterial cells (S. aureus ATCC 29213) inoculated onto a Mueller Hinton agar (MHA) plate were suspended with PBS, and the concentration of the bacterial cells was adjusted to about 5×10^7 CFU/mL for corneal infection in mice. First, the mice were anesthetized. Then, the cornea of the left eye of the mouse was scratched with a sterile needle, and 15 μL of bacterial suspension was dropped on the injured cornea. One day after infection, the mice were randomized into three groups (5 mice per group). Three compounds (0.5% 60, 5% glucose solution and 5% vancomycin) were applied topically four times a day for consecutive three days, respectively. […] Viable bacteria were counted by an MHA plate counting method. the P value was calculated using SPSS 22.0 software and P≤0.05 was considered as being statistically significant.

Compound	MIC (MRSA NCTC10442)	MIC (MRSA N315)	HC50 (concentration necessary to lyse 50% rabbit red blood cells) (rabbit red blood cells; rabbit red blood cells, 37° C., 1 hour)	MIC (Gram-negative bacteria)	MIC (Gram-positive bacteria)	MIC (S. aureus ATCC29213 [1])	MIC (E. coli ATCC25922)	pharmacokinetic characteristics in mice [2]	survival rate of mice after two days of treatment (S. aureus ATCC29213 [3])	cell survival rate, mouse fibroblasts NCTC clone 929 ([4]; CCK-8)	HC50 (concentration necessary to lyse 50% rabbit red blood cells) (rabbit red blood cells; rabbit, 1 h)	change in MIC value after 15 days of continuous passage (S. aureus ATCC29213 [5])	cell survival rate, mouse fibroblasts NCTC clone 929 ([4]; mouse)	reduction of the number of bacteria in the infected mouse cornea (S. aureus ATCC29213 [6])
C=C[C@@](C)(/C=C/c1ccc(OCCCCN(CCCN(C)C)CCCN(C)C)cc1)CCC=C(C)C [Compound 28]	1.56 µg/mL (≈ 3.13 µM)	1.56 µg/mL (≈ 3.13 µM)	112.9 ± 5.0 µg/mL	1.56 to 3.12 µg/mL (≈ 3.13 to 6.28 µM)	0.39 to 3.12 µg/mL (≈ 0.783 to 6.28 µM)	1.56 µg/mL (≈ 3.13 µM)	3.12 µg/mL (≈ 6.28 µM)	–	–	–	–	–	–	–
C=C[C@](C)(/C=C/c1ccc(OCC(=O)N[C@@H](CCCNC(=N)N)C(=O)N[C@@H](CCCNC(=N)N)C(=O)N[C@@H](CCCNC(=N)N)C(N)=O)cc1)CCC=C(C)C [Compound 58]	0.39 µg/mL (≈ 0.499 µM)	0.39 µg/mL (≈ 0.499 µM)	–	–	0.39 to 3.12 µg/mL (≈ 0.499 to 4 µM)	0.39 µg/mL (≈ 0.499 µM)	12.5 µg/mL (≈ 16 µM)	excellent pharmacokinetic characteristics	100%	89.3±0.600	–	–	–	–
C=C[C@](C)(/C=C/c1ccc(OCC(=O)N[C@@H](CCCNC(=N)N)C(=O)N[C@@H](CCCNC(=N)N)C(=O)N[C@@H](CCCNC(=N)N)C(=O)N[C@@H](CCCNC(=N)N)C(=O)OC)cc1)CCC=C(C)C [Compound 60] (X1-RRRR-OMe)	0.78 µg/mL (≈ 0.818 µM)	0.39 µg/mL (≈ 0.409 µM)	–	–	0.39 to 3.12 µg/mL (≈ 0.409 to 3.28 µM)	0.39 µg/mL (≈ 0.409 µM)	12.5 µg/mL (≈ 13.1 µM)	–	–	–	more than 400 μg/mL	does not change significantly	93.7±0.700	4.48 log
C=C[C@](C)(/C=C/c1ccc(OCC(=O)N[C@@H](CCCNC(=N)N)C(=O)N[C@@H](CCCNC(=N)N)C(=O)N[C@@H](CCCNC(=N)N)C(=O)N[C@@H](CCCNC(=N)N)C(N)=O)cc1)CCC=C(C)C [Compound 61] (X1-RRRR-NH2)	0.78 µg/mL (≈ 0.831 µM)	0.39 µg/mL (≈ 0.416 µM)	–	–	0.39 to 3.12 µg/mL (≈ 0.416 to 3.33 µM)	0.78 µg/mL (≈ 0.831 µM)	25 µg/mL (≈ 26.6 µM)	–	–	–	more than 400 μg/mL	–	–	–
C=C[C@](C)(/C=C/c1ccc(OCC(=O)N[C@@H](CCCNC(=N)N)C(=O)N[C@@H](CCCNC(=N)N)C(=O)N[C@@H](CCCNC(=N)N)C(=O)N2CCN(c3ccc(N4C[C@H](CNC(C)=O)OC4=O)cc3F)CC2)cc1)CCC=C(C)C [Compound 63]	0.78 µg/mL (≈ 0.708 µM)	0.78 µg/mL (≈ 0.708 µM)	–	1.56 to 3.12 µg/mL (≈ 1.42 to 2.84 µM)	0.39 to 3.12 µg/mL (≈ 0.354 to 2.84 µM)	0.78 µg/mL (≈ 0.708 µM)	3.12 µg/mL (≈ 2.84 µM)	–	–	–	–	–	–	–
C=C[C@](C)(/C=C/c1ccc(OCC(=O)N[C@@H](CCCNC(=N)N)C(=O)N[C@@H](CCCNC(=N)N)C(=O)N[C@@H](CCCNC(=N)N)C(=O)N[C@@H](CCCNC(=N)N)C(=O)N[C@@H](CCCNC(=N)N)C(=O)N[C@@H](CCCNC(=N)N)C(=O)OC)cc1)CCC=C(C)C [Compound 64]	1.56 µg/mL (≈ 1.23 µM)	1.56 µg/mL (≈ 1.23 µM)	–	–	0.39 to 3.12 µg/mL (≈ 0.308 to 2.47 µM)	1.56 µg/mL (≈ 1.23 µM)	25 µg/mL (≈ 19.8 µM)	–	–	–	more than 400 μg/mL	–	–	–
CCn1cc(C(=O)O)c(=O)c2cc(F)c(N3CCNCC3)cc21 [norfloxacin, reference compound]	–	–	–	–	–	–	–	–	–	–	–	16 fold	–	–
CN[C@H](CC(C)C)C(=O)N[C@H]1C(=O)N[C@@H](CC(N)=O)C(=O)N[C@H]2C(=O)N[C@H]3C(=O)N[C@H](C(=O)N[C@H](C(=O)O)c4cc(O)cc(O)c4-c4cc3ccc4O)[C@H](O)c3ccc(c(Cl)c3)Oc3cc2cc(c3O[C@@H]2O[C@H](CO)[C@@H](O)[C@H](O)[C@H]2O[C@H]2C[C@](C)(N)[C@H](O)[C@H](C)O2)Oc2ccc(cc2Cl)[C@H]1O [vancomycin, reference compound]	–	–	–	–	–	–	–	–	100%	–	–	–	–	4.16 log
